Results: patent US4720506A, “Immunomodulating agent” (Nippon Shinyaku Company, Limited, priority 1982, dated 1988)

Legend:
[1] = test system: Sheep Erythrocytes induced Delayed Type Hypersensitivity; experiment: Sheep erythrocytes induced delayed type hypersensitivity (footpad swelling); assay type: in vivo, mice (ddY); conditions: Table 4, oral, 4 days, 24 hours after challenge
Procedure: Effect on Sheep Erythrocytes induced Delayed Type Hypersensitivity
40 μl of Sheep erythrocytes adjusted to the concentration of 1×10^7 /40 μl was subcutaneously injected to the right footpad of mice (ddY weighing 25-30 g) and the medicament was administered orally for continuous 4 days including the day, on which sheep erythrocytes were administered.
On the 4th day from the administration day of sheep erythrocytes, 40 μl of sheep erythrocytes adjusted to the concentration of 5×10^8 /40 μl was subcutaneously injected to the left footpad. After 24 hours, both of the thickness of the right and left footpad were measured. Footpad swelling due to the delayed type hypersensitivity was recognized as the difference between the thickness of the left and right footpad. The footpad swelling of the medicament-administration group was compared with that of physiological saline solution-administration group (control group).

[2] = test system: Methylated Human Albumin induced Delayed Type Hypersensitivity; experiment: Methylated human albumin induced delayed type hypersensitivity (footpad swelling); assay type: in vivo, mice (C3H); conditions: 4 days; for response vs control in vivo at 100 mg/kg / response vs control in vivo at 300 mg/kg / response vs control in vivo at 30 mg/kg: Mus musculus, 96 h
Procedure: Effect on Methylated Human Albumin induced Delayed Type Hypersensitivity
The medicament was administered orally for continuous 4 days including the immunization-day. On the 4th day from the immunization day, 25 μl of 0.1% methylated human albumin aqueous solution was subcutaneously injected to the footpad. After 24 hours, the thickness of the left and right footpad were measured, and the footpad swelling due to the delayed type hypersensitivity was represented as the difference between the thickness of the left and right footpad. The footpad swelling of the medicament-administration group was compared with that of physiological saline solution-administration group.

[3] = test system: Plaque-Forming Cells in Spleen against Sheep Erythrocytes; experiment: Plaque-forming cells in spleen against sheep erythrocytes in mice; assay type: in vivo, mice (Balb/c); conditions: oral, 4 days; for PFC, % Control: vs physiological saline
Procedure: Effect on Plaque-forming Cells in Spleen against Sheep Erythrocytes in mice
Balb/c mice of 5 weeks old were intravenously immunized with 1×10^8 sheep erythrocytes/mouse. 5 mice were used per group. Medicament was orally administered for 4 days from the day when the mice were immunized. Mice were sacrificed on the 5th day and the numbers of plaque-forming cells (PFC) in the spleen against sheep erythrocytes were determined by Fujiwara's modified method of Cunningham's method ["Method in Immunological Experiment A" edited by Japanese Society for Immunology, page 1272 (1974)].

mice = experiment: Acute toxicity in mice; assay type: in vivo; conditions: 7th day
Procedure: The medicament was suspended in 3% "Tween-80" and the suspension was administered orally or intraperitonealy at a dose shown in Table 1 to mice (ddY weighing 20-25 g).

Row | Structure (SMILES) | % Control of footpad swelling ([1]; 100 mg/kg) | Footpad swelling, mean value ± standard error ([2]; Experiment 2, oral, 100 mg/kg) | Footpad swelling, mean value ± standard error ([2]; Experiment 1, oral, 300 mg/kg) | Footpad swelling, mean value ± standard error ([2]; Experiment 2, oral, 30 mg/kg) | Footpad swelling, mean value ± standard error ([2]; Experiment 2, oral, 300 mg/kg) | response vs control in vivo at 300 mg/kg ([2]; po, Experiment 1, 300 mg/kg) | response vs control in vivo at 30 mg/kg ([2]; po, Experiment 2, 30 mg/kg) | response vs control in vivo at 100 mg/kg ([2]; po, Experiment 2, 100 mg/kg) | response vs control in vivo at 300 mg/kg ([2]; po, Experiment 2, 300 mg/kg) | Mortality (mice; intraperitoneal, 1,000 mg/kg) | Mortality (mice; oral, 5,000 mg/kg) | also measured
1 | Cn1cnc([N+](=O)[O-])c1Sc1ncnc2nc[nH]c12 [Azathioprine, reference compound] | 49.0% | 41.4 ± 1.5 × 0.01 mm |  |  |  |  |  |  |  |  |  | response vs control in vivo at 100 mg/kg ([2]; Experiment 2, oral, 100 mg/kg): 70.9%
2 | CC(=O)Nc1ccc(CC(=O)O)cc1 [Compound 10, 4-Acetylaminophenylacetate] | 85.7% | 41.8 ± 2.5 × 0.01 mm | 44.5 ± 1.6 × 0.01 mm | 46.1 ± 1.7 × 0.01 mm | 42.3 ± 1.8 × 0.01 mm | 70.3% | 78.9% | 71.6% | 72.4% | 0/5 | 0/5 | PFC, mean value ± standard error ([3]; Table 2, 30 mg/kg): 116.4 ± 8.64 × 2,500/spleen; PFC, % Control ([3]; Table 2, 30 mg/kg): 181%; PFC, mean value ± standard error ([3]; Table 2, 100 mg/kg): 107.2 ± 10.5 × 2,500/spleen; PFC, % Control ([3]; Table 2, 100 mg/kg): 167%; PFC, mean value ± standard error ([3]; Table 2, 300 mg/kg): 82.2 ± 7.0 × 2,500/spleen; PFC, % Control ([3]; Table 2, 300 mg/kg): 128%; % Control of footpad swelling ([1]; 30 mg/kg): 77.0%; % Control of footpad swelling ([1]; 300 mg/kg): 71.6%
3 | Cc1ccc(C(=O)Nc2ccc(CC(=O)O)cc2)cc1 [Compound 15, 4-(4-Methylbenzoylamino)phenylacetic acid] |  |  | 57.4 ± 1.5 × 0.01 mm |  |  | 90.7% |  |  |  | 5/5 | 5/5 | Footpad swelling, mean value ± standard error ([2]; Experiment 1, oral, 30 mg/kg): 54.2 ± 1.7 × 0.01 mm; Footpad swelling, mean value ± standard error ([2]; Experiment 1, oral, 100 mg/kg): 56.7 ± 1.8 × 0.01 mm; response vs control in vivo at 30 mg/kg ([2]; po, Experiment 1, 30 mg/kg): 85.6%; response vs control in vivo at 100 mg/kg ([2]; po, Experiment 1, 100 mg/kg): 89.6%; Mortality (mice; intraperitoneal, 300 mg/kg): 0/5; Mortality (mice; oral, 1,000 mg/kg): 0/5
4 | CC(=O)Nc1ccc(C(C)(C)C(=O)O)cc1 [Compound 11, 2-(4-Acetylaminophenyl)-2-methylpropionic acid] |  | 55.4 ± 1.8 × 0.01 mm |  | 54.5 ± 1.7 × 0.01 mm | 51.3 ± 2.3 × 0.01 mm |  | 93.3% | 94.9% | 87.8% | 0/5 | 0/5 | 
5 | CCOC(=O)C(C)c1ccc(NC(C)=O)cc1 (stereo not drawn) [Compound 9, Ethyl 2-(4-acetylaminophenyl)propionate] |  | 55.3 ± 2.0 × 0.01 mm |  | 51.4 ± 1.8 × 0.01 mm | 56.0 ± 2.0 × 0.01 mm |  | 88% | 94.7% | 95.9% | 0/5 |  | Mortality (mice; oral, 1,500 mg/kg): 0/5
6 | CC(C)C(=O)Nc1ccc(CC(=O)O)cc1 [Compound 13] |  |  | 58.5 ± 2.4 × 0.01 mm |  |  | 92.4% |  |  |  | 1/5 | 0/5 | Footpad swelling, mean value ± standard error ([2]; Experiment 1, oral, 30 mg/kg): 57.2 ± 1.9 × 0.01 mm; Footpad swelling, mean value ± standard error ([2]; Experiment 1, oral, 100 mg/kg): 58.2 ± 1.9 × 0.01 mm; response vs control in vivo at 30 mg/kg ([2]; po, Experiment 1, 30 mg/kg): 90.4%; response vs control in vivo at 100 mg/kg ([2]; po, Experiment 1, 100 mg/kg): 91.9%
7 | CCOC(=O)Cc1ccc(N)cc1 [Compound 1, Ethyl p-aminophenylacetate] | 85.9% |  |  |  |  |  |  |  |  | 1/5 |  | PFC, mean value ± standard error ([3]; Table 3, 30 mg/kg): 89.4 ± 10.4 × 3,125/spleen; PFC, % Control ([3]; Table 3, 30 mg/kg): 135%; PFC, mean value ± standard error ([3]; Table 3, 100 mg/kg): 60.6 ± 8.6 × 3,125/spleen; PFC, % Control ([3]; Table 3, 100 mg/kg): 91%; PFC, mean value ± standard error ([3]; Table 3, 300 mg/kg): 82.0 ± 5.2 × 3,125/spleen; PFC, % Control ([3]; Table 3, 300 mg/kg): 123%; % Control of footpad swelling ([1]; 30 mg/kg): 79.8%; % Control of footpad swelling ([1]; 300 mg/kg): 77.9%; Mortality (mice; oral, 3,000 mg/kg): 0/5
8 | CCOC(=O)Cc1ccc(NC(C)=O)cc1 [Compound 4, Ethyl 4-acetylaminophenylacetate] | 93.8% |  |  |  |  |  |  |  |  |  |  | % Control of footpad swelling ([1]; 30 mg/kg): 91.5%; % Control of footpad swelling ([1]; 300 mg/kg): 68.4%; Footpad swelling, mean value ± standard error ([2]; Experiment 3, oral, 30 mg/kg): 48.3 ± 2.6 × 0.01 mm; Footpad swelling, mean value ± standard error ([2]; Experiment 3, oral, 100 mg/kg): 49.4 ± 3.5 × 0.01 mm; Footpad swelling, mean value ± standard error ([2]; Experiment 3, oral, 300 mg/kg): 56.5 ± 2.9 × 0.01 mm; response vs control in vivo at 30 mg/kg ([2]; po, Experiment 3, 30 mg/kg): 75.5%; response vs control in vivo at 100 mg/kg ([2]; po, Experiment 3, 100 mg/kg): 77.2%; response vs control in vivo at 300 mg/kg ([2]; po, Experiment 3, 300 mg/kg): 88.3%
9 | CCOC(=O)Cc1ccc(NC(=O)C(C)C)cc1 [Compound 6, Ethyl 4-(isobutyrylamino)phenylacetate] |  |  | 56.8 ± 2.2 × 0.01 mm |  |  | 89.7% |  |  |  | 0/5 | 1/5 | Footpad swelling, mean value ± standard error ([2]; Experiment 1, oral, 30 mg/kg): 59.0 ± 1.8 × 0.01 mm; Footpad swelling, mean value ± standard error ([2]; Experiment 1, oral, 100 mg/kg): 55.6 ± 1.2 × 0.01 mm; response vs control in vivo at 30 mg/kg ([2]; po, Experiment 1, 30 mg/kg): 93.2%; response vs control in vivo at 100 mg/kg ([2]; po, Experiment 1, 100 mg/kg): 87.8%
10 | CC(=O)Nc1ccc(C(C)C(=O)O)cc1 (stereo not drawn) [Compound 12, 2-(4-Acetylaminophenyl)propionic acid] |  | 52.1 ± 1.5 × 0.01 mm |  | 54.5 ± 1.7 × 0.01 mm | 52.4 ± 1.9 × 0.01 mm |  | 93.2% | 89.2% | 89.7% | 0/5 | 0/5 | 
11 | CCCC(=O)Nc1ccc(CC(=O)O)cc1 [Compound 14, 4-n-Butyrylaminophenylacetic acid] |  | 51.8 ± 1.4 × 0.01 mm |  | 50.9 ± 2.0 × 0.01 mm | 56.7 ± 1.5 × 0.01 mm |  | 87.2% | 88.7% | 97.1% | 0/5 |  | 
